Laboratory results published in DBAASP.
Values after ≈ are worked out from the molar mass of the structure shown. Each block holds one molecule with its values, some of them ahead of it.

Legend:
Test in all cases: ≥ marks a high value that may be exact or a test limit, other limits are often not marked, values filed in µg/mL are converted to µM
[1] = test system: Staphylococcus aureus KCTC 1621
[2] = test system: Proteus vulgaris KCTC 2433
[3] = test system: Bacillus subtilis KCTC 1918
[4] = test system: Candida albicans TIMM 1768
[5] = test system: Trichosporon beigelii KCTC 7707
[6] = test system: Saccharomyces cerevisiae KCTC 7296
[7] = test system: Salmonella typhimurium KCTC 1926
[8] = test system: Candida albicans ATCC 90028
[9] = test system: Pseudomonas aeruginosa 1
[10] = test system: Staphylococcus aureus 4
[11] = test system: Malassezia furfur KCTC 7744
[12] = test system: Pseudomonas aeruginosa
[13] = test system: Candida parapsilosis ATCC 22019
[14] = test system: Escherichia coli O157
[15] = test system: Staphylococcus aureus
[16] = test system: Enterococcus faecium
[17] = test system: Staphylococcus aureus 1
[18] = test system: Staphylococcus epidermidis ATCC 14990
[19] = test system: Staphylococcus aureus ATCC 12600
[20] = test system: Escherichia coli ATCC 25922
[21] = test system: Streptococcus salivarius ATCC 13419
[22] = test system: Escherichia coli KCTC 1682
[23] = test system: Pseudomonas aeruginosa KCTC 1637
[24] = test system: Bacillus megaterium KCTC 1096
[25] = test system: Proteus vulgaris
[26] = test system: Schizosaccharomyces pombe
[27] = test system: Pseudomonas aeruginosa ATCC 15692
[28] = test system: Streptococcus pyogenes ATCC 21547
[29] = test system: Staphylococcus aureus Cowan 1
[30] = test system: Yersinia pseudotuberculosis YPIII
[31] = test system: Staphylococcus aureus ATCC 25923
[32] = test system: Staphylococcus capitis 1
[33] = test system: Candida albicans ATCC 10231
[34] = test system: Saccharomyces cerevisiae
[35] = test system: Acinetobacter baumannii ATCC 19606
[36] = test system: Bacillus megaterium Bm11
[37] = test system: Enterococcus faecalis ATCC 29212
[38] = test system: Acinetobacter junii RT-4
[39] = test system: Pseudomonas syringae pv. tabaci 1918NCPPB
[40] = test system: Staphylococcus epidermidis ATCC 12228
[41] = test system: Escherichia coli D21
[42] = test system: Pseudomonas aeruginosa ATCC 27853

SMILES: CC[C@H](C)[C@H](NC(=O)[C@H](CC(C)C)NC(=O)[C@H](CCCN=C(N)N)NC(=O)[C@@H](NC(=O)[C@H](C)NC(=O)[C@H](CCCCN)NC(=O)[C@H](CC(C)C)NC(=O)[C@H](CC(C)C)NC(=O)[C@@H](N)CCC(=O)O)C(C)C)C(=O)N[C@@H](CCCCN)C(=O)O [ELLKAVRLIK]
MIC [8]: 10 µM (≈ 11.8 µg/mL) | MIC [9]: 10 µM (≈ 11.8 µg/mL) | MIC [10]: 10 µM (≈ 11.8 µg/mL) | MIC [11]: 20 µM (≈ 23.7 µg/mL) | MIC [12]: 5 µM (≈ 5.91 µg/mL) | MIC [5]: 28.3 µM (≈ 33.4 µg/mL) | MIC [13]: 10 µM (≈ 11.8 µg/mL) | MIC [14]: 10 µM (≈ 11.8 µg/mL) | MIC [15]: 20 µM (≈ 23.7 µg/mL) | MIC [16]: 10 µM (≈ 11.8 µg/mL) | MIC [17]: 5 µM (≈ 5.91 µg/mL)

SMILES: CC(C)C[C@@H]1NC(=O)[C@H](C(C)C)NC(=O)[C@H](Cc2ccccc2)NC(=O)[C@@H]2CSSC[C@@H]3NC(=O)[C@H](Cc4ccc(O)cc4)NC(=O)[C@@H]4CSSC[C@H](NC(=O)[C@H](CCCN=C(N)N)NC(=O)[C@H]([C@@H](C)O)NC(=O)CNC(=O)[C@H](CC(N)=O)NC(=O)[C@H](CCCN=C(N)N)NC(=O)[C@H](Cc5ccc(O)cc5)NC(=O)[C@H](CSSC[C@H](NC(=O)[C@@H]5CCCN5C1=O)C(=O)N[C@@H](Cc1c[nH]c5ccccc15)C(=O)N[C@@H](CO)C(=O)N[C@@H](C)C(=O)N[C@@H](CCCCN)C(=O)N[C@@H](Cc1ccccc1)C(=O)NCC(=O)N4)NC(=O)[C@H](Cc1ccccc1)NC(=O)CNC(=O)[C@H](CCCCN)NC(=O)[C@H](CCC(N)=O)NC3=O)C(=O)NCC(=O)N[C@@H](CCC(=O)O)C(=O)N[C@@H]([C@@H](C)O)C(=O)N2 [GTRCGETCFVLPCWSAKFGCYCQKGFCYRN]
MIC [18]: ≥ 80 µM | MIC [19]: ≥ 80 µM | MIC [20]: 3.4 µM (≈ 11.6 µg/mL) | MIC [21]: 5.9 µM (≈ 20.1 µg/mL)

SMILES: CC(C)C[C@H](NC(=O)[C@H](Cc1c[nH]c2ccccc12)NC(=O)[C@H](CCCN=C(N)N)NC(=O)CNC(=O)[C@H](CC(C)C)NC(=O)[C@H](CC(C)C)NC(=O)[C@H](CCCCN)NC(=O)[C@H](CO)NC(=O)[C@H](CC(C)C)NC(=O)[C@H](Cc1c[nH]c2ccccc12)NC(=O)[C@H](CCC(N)=O)NC(=O)[C@H](CC(C)C)NC(=O)[C@@H](N)CC(C)C)C(N)=O [LLQWLSKLLGRWL]
MIC [26]: 6 µM (≈ 9.75 µg/mL) | MIC [27]: ≥ 48 µM | MIC [28]: 6 µM (≈ 9.75 µg/mL) | MIC [29]: 6 µM (≈ 9.75 µg/mL) | MIC [30]: 6 µM (≈ 9.75 µg/mL) | MIC [31]: 6 µM (≈ 9.75 µg/mL) | MIC [32]: 6 µM (≈ 9.75 µg/mL) | MIC [33]: 12 µM (≈ 19.5 µg/mL) | MIC [34]: 12 µM (≈ 19.5 µg/mL) | MIC [35]: 6 µM (≈ 9.75 µg/mL) | MIC [20]: > 48 µM | MIC [36]: 3 µM (≈ 4.88 µg/mL) | MIC [37]: 12 µM (≈ 19.5 µg/mL) | MIC [38]: 6 µM (≈ 9.75 µg/mL) | MIC [39]: 12 µM (≈ 19.5 µg/mL) | MIC [40]: 3 µM (≈ 4.88 µg/mL) | MIC [41]: ≥ 48 µM | MIC [42]: > 48 µM

The next lines start with the values.

MIC [1]: 0.78 µM (≈ 1.7 µg/mL) | MIC [2]: 0.78 µM (≈ 1.7 µg/mL) | MIC [3]: 0.78 µM (≈ 1.7 µg/mL) | MIC [4]: ≥ 50 µM | MIC [5]: ≥ 35.4 µM | MIC [6]: 17.7 µM (≈ 38.6 µg/mL) | MIC [7]: 0.39 µM (≈ 0.852 µg/mL)
SMILES: CC[C@H](C)[C@H](NC(=O)CNC(=O)[C@H](CC(C)C)NC(=O)[C@H](CCCN=C(N)N)NC(=O)[C@H](CCCCN)NC(=O)[C@H](Cc1ccccc1)NC(=O)[C@@H](NC(=O)[C@H](CCCCN)NC(=O)[C@H](CCCCN)NC(=O)[C@H](C)N)C(C)C)C(=O)NCC(=O)N[C@@H](C)C(=O)N[C@H](C(=O)N[C@@H](CC(C)C)C(=O)N[C@@H](CCCCN)C(=O)N[C@H](C(=O)N[C@@H](CC(C)C)C(=O)N[C@H](C(=O)N[C@@H](Cc1c[nH]c2ccccc12)C(=O)NCC(=O)O)[C@@H](C)O)C(C)C)C(C)C [AKKVFKRLGIGAVLKVLTWG]

MIC [22]: 12.5 µM (≈ 21.3 µg/mL) | MIC [1]: 12.5 µM (≈ 21.3 µg/mL) | MIC [3]: 1.56 µM (≈ 2.66 µg/mL) | MIC [23]: 12.5 µM (≈ 21.3 µg/mL) | MIC [24]: 3.12 µM (≈ 5.32 µg/mL) | MIC [25]: 3.12 µM (≈ 5.32 µg/mL)
SMILES: CC[C@H](C)[C@H](NC(=O)[C@H](CCCCN)NC(=O)[C@H](CCCCN)NC(=O)[C@H](Cc1ccccc1)NC(=O)[C@H](CC(C)C)NC(=O)[C@H](CCCCN)NC(=O)[C@H](Cc1c[nH]c2ccccc12)NC(=O)[C@@H](N)CCCCN)C(=O)N1CCC[C@H]1C(=O)N[C@@H](CC(C)C)C(=O)N[C@@H](CCCCN)C(=O)N[C@@H](CCCCN)C(=O)N[C@@H](Cc1ccccc1)C(N)=O [KWKLFKKIPLKKF]
